One data set concerns HCT-116 cells. The experiment in a line: HCT-116 growth inhibition. Format: cell-based.
A further data set has as its system HDAC. The experiment in a line: HCT-116 HDAC cellular assay (Fluor de Lys substrate). The class given is cell-based. To be noted: HCT-116, 8 h, fluorogenic HDAC substrate.
Data set [1] concerns HeLa nuclear extract HDACs (class I HDACs 1, 2, and 3). Description: HeLa nuclear extract HDAC inhibition. To be noted: HeLa cell nuclear protein extract. Format: biochemical. An excerpt: Largazole (21) inhibited HDAC activity from a HeLa cell nuclear protein extract rich in class I HDACs 1, 2, and 3 (BIOMOL); however, it is possible that the thioester is cleaved under assay conditions. To investigate that thiol 29 is a reactive species, we liberated 29 from the acetyl analog 28 of largazole (21) and measured enzymatic activity directly; thiol […] inhibited the HDACs in the nuclear extract of HeLa cells with a similar IC50 value (Table 3).

Another data set has as its system NIH3T3 cells. Format: cell-based. To be noted: NIH3T3, 48 h, MTT. Here is the method: Cell culture medium was purchased from Invitrogen and fetal bovine serum (FBS) from Hyclone. Cells were propagated and maintained in DMEM medium (high glucose) supplemented with 10% FBS at 37° C. humidified air and 5% CO2.
Cells suspended in DMEM containing 10% FBS were plated in 96-well plates (MDA-MB-231: 12,000 cells; NMuMG: 5,000 cells; U2OS: 5,000 cells; HT29: 10,000 cells; IMR-32: 30,000 cells; NIH3T3: 5,000 cells) incubated (37° C., 5% CO2) and 24 h later treated with various concentrations of compound 21 or solvent control (1% EtOH). After another 48 h of incubation, cell viability was measured using MTT according to manufacturer's instructions (Promega).
MDA-MB-231 and NMuMG cells were also treated with paclitaxel (in DMSO), actinomycin D (in DMSO) and doxorubicin (in H2O) and corresponding solvent control (1%) in the same manner. GI50 and LC50 values were calculated as previously described (K. D. Paull, E. Hamel, L. Malspeis, In Cancer Chemotherapeutic Agents, W. E. Foye, Ed., American Chemical Society, Washington, D.C., 1995, pp. 10-11).
[formula] [T=absorbance in treated wells (48 h); T0=absorbance at time zero; C=absorbance in control wells (48 h)]

Data on two compounds can be found in US8759512B2, “Methods of preparation of macrocyclic compounds” (University of Florida Research Foundation, Inc., priority 2008, dated 2014).

On to `CC(=O)SCC/C=C/[C@@H]1CC(=O)NCc2nc(cs2)C2=N[C@@](C)(CS2)C(=O)N[C@@H](C(C)C)C(=O)O1` [Compound 28], for which, in the data set with HCT-116 cells, growth was halved (GI50) at 33 ± 2 nM. In addition, the concentration for half-maximal inhibition (IC50) came out at 50 ± 18 nM with HDAC and 52 ± 27 nM in data set [1].
As to `CCCCCCCC(=O)SCC/C=C/[C@@H]1CC(=O)NCc2nc(cs2)C2=N[C@@](C)(CS2)C(=O)N[C@@H](C(C)C)C(=O)O1` [Compound 21, Largazole], the “toxicity (cytotoxicity)” value with NIH3T3 cells is “no apparent toxicity”.

One may read the GI50 as the concentration that inhibits growth by half. Low readings indicate greater sensitivity of the cells, high ones lower sensitivity of the cells. What is called IC50 is the concentration that inhibits the measured activity by half. A low value points to greater potency.
